PubChem BioAssay AID2060895 (Molecular Pharmacology Branch, DTP, NCI, 2025)
pIC50: −log10 of the molar value.

Test system: PDC 899932-113-R3-J6 complex spheroid viability
Assay: Anticancer human tumor 899932-113-R3-J6-PDC patient-derived melanoma cell line growth inhibition [RAS]
Details: for pIC50: curve of first compound; for viability, T/C: stronger effect = lower value
Excerpt: RAS pathway inhibitors in Combinations in Complex Spheroids
A high-throughput screen of multi-cell type tumor spheroids was designed to identify active combinations of RAS pathway inhibitors and targeted small molecules. Complex spheroids include a stromal component modeled by human endothelial cells (HUVEC) and fibroblasts modeled by human mesenchymal stem cells (MSCs). The concentration ranges selected for each drug and investigational agent were based upon clinically achievable concentrations if the clinical Cmax of the agent was known.
Compounds. The drugs and investigational agents: abemaciclib (NSC768073), cobimetinib (NSC768068), divarasib (GDC6063, NSC841802), docetaxel (NSC628503), GDC-1971 (RLY-1971, NSC841576), gemcitabine (NSC613327), inavolisib (NSC800729), ipatasertib (NSC767898), KB-0742 (NSC834161), MRTX-1133 (NSC836407), osimertinib (NSC779217), RMC-4630 (NSC839698), RMC-6236 (NSC851965), RMC-6291 (NSC852671), Ro-3306 (NSC812927), sapanisertib (NSC764658), SN-38 (NSC673596), staurosporine (NSC755774), SY5609 (NSC837396), and tovorafenib (DAY101, NSC766906), were obtained from the National Cancer Institute (NCI) Developmental Therapeutics Program Chemical Repository. The FDA-approved anticancer drug set is available from the NCI Developmental Therapeutics Program. […] The stock solutions were prepared in dimethyl sulfoxide (DMSO, Sigma-Aldrich, St. Louis, MO, cat. D2650) at 800-fold the tested concentration and stored at -70 degrees C prior to their use. All drugs and investigational agents were tested over a range starting from a high concentration at or near the clinical Cmax and decreasing in half-log increments. If the clinical Cmax for an agent had not been determined, the highest concentration tested was 10 microM.
Cell Culture. All cells were maintained in an incubator at 37 degrees C and 5% CO2 with 95% humidity. The PDC lines were cultured according to standard operating procedures established by the NCI PDMR. All PDCs were thawed and cultured in Matrigel-coated flasks prepared with a working solution of 1X Ham's F-12 nutrient mix, without supplementation (Invitrogen, Waltham, MA, cat. 11765054), 100 U/mL penicillin-streptomycin (Invitrogen, cat. 15140122), and 2.5% Matrigel (Corning Inc., Corning, NY, cat. 354248) for the first three passages. The 362531-283-R-J2-PDC and 782815-120-R-J1-PDC lines were cultured in 6C/Colon 1B media, which includes advanced DMEM/F-12 (Thermo Fisher Scientific, cat. 12634028), 10 mM HEPES (Thermo Fisher Scientific, cat. 15630080), 1X GlutaMAX supplement (Thermo Fisher Scientific, cat. 35050061), 0.1 mg/mL primocin (InvivoGen, San Diego, CA, cat. ant-pm-2), 10% defined fetal bovine serum, heat inactivated (HyClone Laboratories Inc., Logan, UT, cat. SH30070.03HI), 50% L-WRN conditioned media (ATCC, cat. CRL-3276), 1.25 mM N-Acetyl-L-cysteine (Sigma-Aldrich, cat. A9165), 10 mM nicotinamide (Sigma-Aldrich, cat. N0636), 1X B-27 supplement (Thermo Fisher Scientific, cat. 17504044), 1X N-2 supplement (Thermo Fisher Scientific, cat. 17502048), 50 ng/mL human EGF (Thermo Fisher Scientific, cat. PHG0311), and 10 microM Y-27632 dihydrochloride (Tocris Bioscience, cat. 1254). The K12877-001-R-J1-PDC line was cultured in 6I media, which includes all 6C/Colon 1B media plus 10 ng/mL human FGF-10 (PeproTech, cat. 100-26), 1 ng/mL human FGF-2 (PeproTech, cat. 100-18B), 1 µM prostaglandin E2 (Tocris Bioscience, cat. 2296), […] hydrocortisone (Sigma-Aldrich, cat. H4001), and […] bovine insulin (Sigma-Aldrich, cat. I6634). The K86415-001-R-J1-PDC line was cultured in 6D media, which includes all 6C/Colon 1B media components minus the L-WRN conditioned media. The 485176-168-R4-J1-PDC was cultured in PANC media, which includes all 6C/Colon 1B media plus 100 ng/mL human FGF-10 (PeproTech, cat. 100-26), 500 nM SB-431542 (Selleckchem, cat. S1067), and 10 nM gastrin (Tocris Bioscience, cat. 3006). […]
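Throughout, for viability, T/C: spheroids exposed to agents for seven days before readout; 100% = DMSO vehicle control wells.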

C[C@@H](NC(=O)c1ncnc(N)c1Cl)c1ncc(C(=O)Nc2cc(C(F)(F)F)c(Cl)cn2)s1 + C=CC(=O)N1CCN(c2nc(OCC3CCCN3C)nc3c(F)c(-c4nc(N)cc(C)c4C(F)(F)F)c(Cl)cc23)C(C)C1
pIC50 (second compound 0.00316 µM): 5.16 | pIC50 (second compound 0.01 µM): 5.15 | pIC50 (second compound 0.0316 µM): 5.14 | pIC50 (second compound 0.1 µM): 5.13 | pIC50 (second compound 0.316 µM): 5.13 | pIC50 (second compound 1 µM): 5.12 | viability, T/C (second compound 0.00316 µM, first compound 0.0316 µM): 131% | viability, T/C (second compound 0.00316 µM, first compound 0.1 µM): 152% | viability, T/C (second compound 0.00316 µM, first compound 0.316 µM): 169% | viability, T/C (second compound 0.00316 µM, first compound 1 µM): 164% | viability, T/C (second compound 0.00316 µM, first compound 3.16 µM): 103% | viability, T/C (second compound 0.00316 µM, first compound 10 µM): 25.8% | viability, T/C (second compound 0.01 µM, first compound 0.0316 µM): 140% | viability, T/C (second compound 0.01 µM, first compound 0.1 µM): 153% | viability, T/C (second compound 0.01 µM, first compound 0.316 µM): 153% | viability, T/C (second compound 0.01 µM, first compound 1 µM): 154% | viability, T/C (second compound 0.01 µM, first compound 3.16 µM): 106% | viability, T/C (second compound 0.01 µM, first compound 10 µM): 25% | viability, T/C (second compound 0.0316 µM, first compound 0.0316 µM): 121% | viability, T/C (second compound 0.0316 µM, first compound 0.1 µM): 143% | viability, T/C (second compound 0.0316 µM, first compound 0.316 µM): 157% | viability, T/C (second compound 0.0316 µM, first compound 1 µM): 154% | viability, T/C (second compound 0.0316 µM, first compound 3.16 µM): 104% | viability, T/C (second compound 0.0316 µM, first compound 10 µM): 29.1% | viability, T/C (second compound 0.1 µM, first compound 0.0316 µM): 142% | viability, T/C (second compound 0.1 µM, first compound 0.1 µM): 152% | viability, T/C (second compound 0.1 µM, first compound 0.316 µM): 153% | viability, T/C (second compound 0.1 µM, first compound 1 µM): 160% | viability, T/C (second compound 0.1 µM, first compound 3.16 µM): 115% | viability, T/C (second compound 0.1 µM, first compound 10 µM): 26.9% | viability, T/C (second compound 0.316 µM, first compound 0.0316 µM): 136% | viability, T/C (second compound 0.316 µM, first compound 0.1 µM): 136% | viability, T/C (second compound 0.316 µM, first compound 0.316 µM): 168% | viability, T/C (second compound 0.316 µM, first compound 1 µM): 161% | viability, T/C (second compound 0.316 µM, first compound 3.16 µM): 108% | viability, T/C (second compound 0.316 µM, first compound 10 µM): 29.3% | viability, T/C (second compound 1 µM, first compound 0.0316 µM): 124% | viability, T/C (second compound 1 µM, first compound 0.1 µM): 144% | viability, T/C (second compound 1 µM, first compound 0.316 µM): 149% | viability, T/C (second compound 1 µM, first compound 1 µM): 151% | viability, T/C (second compound 1 µM, first compound 3.16 µM): 114% | viability, T/C (second compound 1 µM, first compound 10 µM): 29.9%

CCc1c2c(nc3ccc(O)cc13)-c1cc3c(c(=O)n1C2)COC(=O)[C@]3(O)CC
viability, T/C (compound 0.000949 µM): 94.3% [middle of 4 runs] | viability, T/C (compound 0.003 µM): 69.3% [middle of 4 runs] | viability, T/C (compound 0.00949 µM): 58.9% [middle of 4 runs] | viability, T/C (compound 0.03 µM): 48.3% [middle of 4 runs] | viability, T/C (compound 0.0949 µM): 42.1% [middle of 4 runs] | viability, T/C (compound 0.3 µM): 32.8% [middle of 4 runs]

CCc1c2c(nc3ccc(O)cc13)-c1cc3c(c(=O)n1C2)COC(=O)[C@]3(O)CC + C=CC(=O)N1CCN(c2nc(OCC3CCCN3C)nc3c(F)c(-c4nc(N)cc(C)c4C(F)(F)F)c(Cl)cc23)C(C)C1
pIC50 (second compound 0.00316 µM): 7.71 | pIC50 (second compound 0.01 µM): 7.61 | pIC50 (second compound 0.0316 µM): 7.48 | pIC50 (second compound 0.1 µM): 7.52 | pIC50 (second compound 0.316 µM): 7.53 | pIC50 (second compound 1 µM): 7.50 | viability, T/C (second compound 0.00316 µM, first compound 0.000949 µM): 89.8% | viability, T/C (second compound 0.00316 µM, first compound 0.003 µM): 65.9% | viability, T/C (second compound 0.00316 µM, first compound 0.00949 µM): 57.6% | viability, T/C (second compound 0.00316 µM, first compound 0.03 µM): 48.6% | viability, T/C (second compound 0.00316 µM, first compound 0.0949 µM): 39.2% | viability, T/C (second compound 0.00316 µM, first compound 0.3 µM): 36% | viability, T/C (second compound 0.01 µM, first compound 0.000949 µM): 92.8% | viability, T/C (second compound 0.01 µM, first compound 0.003 µM): 67.4% | viability, T/C (second compound 0.01 µM, first compound 0.00949 µM): 59.2% | viability, T/C (second compound 0.01 µM, first compound 0.03 µM): 50.2% | viability, T/C (second compound 0.01 µM, first compound 0.0949 µM): 43% | viability, T/C (second compound 0.01 µM, first compound 0.3 µM): 36.4% | viability, T/C (second compound 0.0316 µM, first compound 0.000949 µM): 93.5% | viability, T/C (second compound 0.0316 µM, first compound 0.003 µM): 78% | viability, T/C (second compound 0.0316 µM, first compound 0.00949 µM): 59.9% | viability, T/C (second compound 0.0316 µM, first compound 0.03 µM): 51% | viability, T/C (second compound 0.0316 µM, first compound 0.0949 µM): 43.9% | viability, T/C (second compound 0.0316 µM, first compound 0.3 µM): 30.3% | viability, T/C (second compound 0.1 µM, first compound 0.000949 µM): 102% | viability, T/C (second compound 0.1 µM, first compound 0.003 µM): 69.5% | viability, T/C (second compound 0.1 µM, first compound 0.00949 µM): 61.3% | viability, T/C (second compound 0.1 µM, first compound 0.03 µM): 55.7% | viability, T/C (second compound 0.1 µM, first compound 0.0949 µM): 43.2% | viability, T/C (second compound 0.1 µM, first compound 0.3 µM): 38.4% | viability, T/C (second compound 0.316 µM, first compound 0.000949 µM): 95.6% | viability, T/C (second compound 0.316 µM, first compound 0.003 µM): 71.7% | viability, T/C (second compound 0.316 µM, first compound 0.00949 µM): 58.6% | viability, T/C (second compound 0.316 µM, first compound 0.03 µM): 54.1% | viability, T/C (second compound 0.316 µM, first compound 0.0949 µM): 43% | viability, T/C (second compound 0.316 µM, first compound 0.3 µM): 34.4% | viability, T/C (second compound 1 µM, first compound 0.000949 µM): 96.5% | viability, T/C (second compound 1 µM, first compound 0.003 µM): 75% | viability, T/C (second compound 1 µM, first compound 0.00949 µM): 59.9% | viability, T/C (second compound 1 µM, first compound 0.03 µM): 51.7% | viability, T/C (second compound 1 µM, first compound 0.0949 µM): 44.6% | viability, T/C (second compound 1 µM, first compound 0.3 µM): 34.3%
